Key:
Format in all cases: in vivo, human
[1] = system: patients exhibiting rheumatoid arthritis and severe consequential synovial inflammation; assay: Clinical trial: synovial inflammation/synovitis in rheumatoid arthritis, intraarticular tropisetron (Example 1); conditions: 2 mg intraarticularly once
[2] = system: patient with repeated exudation from the knee joint consequential to damage to the meniscus; assay: Clinical case: repeated knee joint exudation after meniscus damage, intra-articular tropisetron (Example 2, first patient); conditions: 2 mg intra-articularly
Description: Prior to the trial the patient received injections of glucocorticoid. The patient receives an injection of 2 mg of tropisetron administered intra-articularly.

[3] = system: patient with damage to the meniscus and arthritic change leading to synovial irritation with knee joint effusion; assay: Clinical case: synovial irritation with knee joint effusion, i.v. tropisetron (Example 2, second patient)
Description: […] 2 mg doses of tropisetron are administered i.v. over a period of 17 days with 15 injections, one each day with a 2 days pause in therapy.

[4] = system: patients exhibiting implant/insertion tendopathy; assay: Clinical trial: implant/insertion tendopathy, local injection of tropisetron (Example 3); conditions: 2 mg injected once in the area of greatest pain
Description: The condition treated results in the case of the first patient from epicondylitis radialis, in the case of the second patient from insertion tendopathy in the area of insertion of the deltoid muscle and, in the case of the third patient from an enthesiopathy of the Malleolus lateralis. In all three cases, tropisetron is injected once at a dosage of 2 mg in the area of greatest pain, directly into the tissues. In all three cases severity of pain decreases within a period of 60 min. and virtually complete remittal is achieved within 24 hrs., indicating remission from disease remission.

[5] = system: patients with epicondylitis or periarthropathia humeroscapularis; assay: Enthesiopathy (insertion tendopathy) with infiltration, pain on VAS (Example 4a); conditions: 7 days after local injection
Text: (§1) Pain is subsequently determined on a visual analogue scale (VAS) that goes from 0 mm (no pain) to 100 mm (strongest pain). • 4a) Enthesiopathy (Insertion Tendopathy) (with infiltration): • (i) patient; Diagnosis: epicondylitis. Rest pain before local injection of tropisetron 30 mm, 7 days later 0 mm. • (ii) patient, diagnosis: periarthropathia humeroscapularis. Rest pain before local injection of tropisetron 85 mm, 7 days after local injection 45 mm. • (iii) Patient, diagnosis: epicondylitis. Rest pain before local injection of tropisetron 35 mm, 7 days thereafter 0 mm. • 4b) Rheumatoid arthritis (intraarticular injection): • (i) patient.

[6] = system: patient with Morbus Still; assay: Left knee joint irritation (Morbus Still), intraarticular injection (Example 4c); conditions: for knee joint circumference: before 44 cm; for pain under strain (VAS): before 70; for pain at rest in the VAS (0-100): before 98
Text: as §1
Patient, Morbus Still diagnosed 1.5 years ago. Despite basic treatment with 15 mg methotrexat per week and 20 mg prednisolone per day, the patient suffers from swelling and overheating of the left knee joint for the first time in February 1999. Pain at rest in the VAS 98 (0-100), pain under strain 70. Obvious articular effusion. Knee joint circumference 44 cm, straightening/bending 0°-10°, 115°. 24 hours after an intraarticular injection with 2 mg tropisetron pain at rest in the Visual Analog Scale (VAS) 0, pain under strain 70. […] 7 days later pain at rest in the VAS 0, pain under strain 57, straightening/bending 0°,0°,130°, knee joint circumference 40.5 cm. • 4e) Gonarthrosis: […]

[7] = system: patient with activated gonarthritis with effusion; assay: Gonarthrosis, intra-articular injection (Example 4e); conditions: intra-articular 2 mg; for pain at rest on the visual analog scale for pain (0-100): before 43
Text: as §1
Patient has activated gonarthritis with effusion for 2 months. Only short-term pain reduction by means of non-steroidal antiphlogistics could be achieved. Following an intra-articular injection with 2 mg tropisetron, pain at rest after 24 hours on the visual analog scale for pain (0-100) sinks from 43 to 25, after 2 days to 13, after 7 days to 10 and in a follow-up check after 17 days to 4. The analog values for pain under strain are 75, 45, 10 and 10, respectively. The effusion is gone after 7 days, as is the overheating of the knee joint.

[8] = system: patient with cervical syndrome; assay: Spinal syndrome: cervical syndrome, i.v. administration (Examples 5 and 6(i)); conditions: 2 mg i.v., before injection 68 mm
Text: as §1
Patient, diagnosis: cervical syndrome. Before injection of 2 mg tropisetron 68 mm rest pain, 24 hours later 35 mm, at day 7 18 mm.
Patient, diagnosis: cervical syndrome. Before i.v. injection of 2 mg tropisetron 68 mm rest pain, 24 hours later 35 mm, at day 7 18 mm. • (ii) Lumbalgia: […]

[9] = 24 hours after intraarticular injection of 2 mg
[10] = 7 days later, intraarticular 2 mg

Compound: CN1[C@@H]2CC[C@H]1C[C@@H](OC(=O)c1c[nH]c3ccccc13)C2 [tropisetron, Indol-3-yl-carboxylic acid-endo-8-methyl-8-aza-bicyclo[3,2,1]-oct-3-yl-ester]
- symptoms ([1]; both patients examined over one week following treatment): free of symptoms
- remission from pain ([1]; two patients (shoulder joint, knee joint), within a few hours): almost complete remission from pain
- pain ([2]; after 45 min.): marked reduction of pain
- effusion from the knee joint ([2]; after 5 hours): major reduction of effusion
- symptoms ([2]; without further therapy, observation period of 5 days): free of symptoms
- movement of the knee joint ([3]; 2 mg i.v. daily): clearly improved
- time until exudation from the knee joint is completely inhibited ([3]; 2 mg i.v. daily, without any other medication): ≤ 8 days
- symptoms ([3]; 2 mg i.v., 15 injections over 17 days, following continuation of injections): virtually free of symptoms
- persistence of improvement in condition after completion of therapy ([3]; 2 mg i.v., 15 injections over 17 days, observation following completion of therapy): continues over a further 7 days observation
- pain ([3]; 2 mg i.v., 24 hours after the first i.v. injection): significant improvement of pain
- further improvements after injection [4]: increase of strength and of flexibility of the affected body part
- period within which severity of pain decreases ([4]; all three patients): ≤ 60 min
- time within which virtually complete remittal is achieved ([4]; all three patients): ≤ 24 h
- rest pain (VAS) ([5]; patient (i), epicondylitis, before injection 30 mm): 0 mm
- rest pain (VAS) ([5]; patient (ii), periarthropathia humeroscapularis, before injection 85 mm): 45 mm
- rest pain (VAS) ([5]; patient (iii), epicondylitis, before injection 35 mm): 0 mm
- joint swelling and effusion [6, 9]: significant reduction of joint swelling and effusion
- knee joint circumference [6, 9]: 41 cm
- pain under strain (VAS) [6, 9]: 70
- pain at rest in the VAS (0-100) ([6]; 24 hours after intraarticular injection of 2 mg, on methotrexat and prednisolone): 0
- knee joint circumference [6, 10]: 40.5 cm
- pain under strain (VAS) [6, 10]: 57
- pain at rest in the VAS (0-100) [6, 10]: 0
- pain at rest on the visual analog scale for pain (0-100) ([7]; after 24 hours): 25
- pain at rest on the visual analog scale for pain (0-100) ([7]; after 2 days): 13
- effusion ([7]; after 7 days): gone
- overheating of the knee joint ([7]; after 7 days): gone
- pain at rest on the visual analog scale for pain (0-100) ([7]; after 7 days): 10
- pain at rest on the visual analog scale for pain (0-100) ([7]; follow-up check after 17 days): 4
- pain under strain, visual analog scale (0-100) ([7]; fourth of four printed values, time point unclear (7 or 17 days)): 10
- pain under strain, visual analog scale (0-100) ([7]; second of four printed values, presumably after 24 hours, first value (before) 75): 45
- pain under strain, visual analog scale (0-100) ([7]; third of four printed values, time point unclear (2 or 7 days)): 10
- rest pain (VAS) ([8]; 24 hours later): 35 mm
- rest pain (VAS) ([8]; at day 7): 18 mm
